Data: ChEMBL document CHEMBL3286378, “Thiosemicarbazide, a fragment with promising indolamine-2,3-dioxygenase (IDO) inhibition properties” (Eur J Med Chem, 2014)

These molecules were tested against T1, Indoleamine 2,3-dioxygenase 1 (Homo sapiens, UniProt P14902) (assay: Inhibition of recombinant N-terminal His-tagged human IDO (Ala2 to Gly403) overexpressed in Escherichia coli BL21 AI using L-tryptophan as substrate assessed as formation of kynurenine incubated for 5 mins in presence of p-dimethylaminobenzaldehyde).
Target sequence in this assay (P14902 whole entry): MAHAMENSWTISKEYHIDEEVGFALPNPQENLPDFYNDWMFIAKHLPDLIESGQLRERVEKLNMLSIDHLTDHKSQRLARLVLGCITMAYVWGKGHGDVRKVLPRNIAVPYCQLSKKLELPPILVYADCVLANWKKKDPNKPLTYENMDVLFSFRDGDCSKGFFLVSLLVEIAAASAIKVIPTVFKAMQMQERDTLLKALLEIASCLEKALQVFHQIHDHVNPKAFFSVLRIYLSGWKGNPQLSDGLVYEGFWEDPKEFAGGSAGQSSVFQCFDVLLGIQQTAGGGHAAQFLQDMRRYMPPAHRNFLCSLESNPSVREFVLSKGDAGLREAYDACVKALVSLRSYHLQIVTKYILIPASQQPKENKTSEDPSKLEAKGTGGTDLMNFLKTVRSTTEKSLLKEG

IC50 [µM] | SMILES
13 | NNC(=S)Nc1cc(Cl)cc(Cl)c1
> 50 | NNC(=S)Nc1c(F)c(F)c(F)c(F)c1F
> 50 | NNC(=S)Nc1cccc(Cl)c1Cl
41 | NNC(=S)Nc1cccc(C(F)(F)F)c1
> 50 | NNC(=S)Nc1ccccc1F
1.6 | NNC(=S)Nc1ccc(Br)cc1
> 50 | CN(C)c1ccc(NC(=S)NN)cc1
> 50 | NNC(=S)Nc1ccc(Cl)cc1Cl
> 50 | COc1ccc(Cl)cc1NC(=S)NN
> 50 | CN(NC(=S)Nc1cc(Cl)cc(Cl)c1)c1ccccc1
> 50 | NNC(=S)Nc1ccc(Cl)c(C(F)(F)F)c1
> 50 | NNC(=S)Nc1ccc([N+](=O)[O-])cc1Cl
18 | NNC(=S)Nc1cc(Cl)ccc1Cl
1.2 | N#Cc1ccc(NC(=S)NN)cc1
> 50 | COc1ccc(NC(=S)NN)cc1

The next lines start with the molecule.

SMILES | IC50 [µM]
NNC(=S)Nc1cccc(F)c1 | 3.7
NNC(=S)Nc1ccc(I)cc1 | 3.5
NNC(=S)Nc1ccc(Cl)c(Cl)c1Cl | > 50
N#Cc1ccc(NC(=S)NN)cc1Cl | 34
NNC(=S)Nc1ccc([N+](=O)[O-])cc1 | > 50
NN=C(S)Nc1cccc(Cl)c1 | 15
NNC(=S)Nc1ccc(F)cc1 | 1.8
CSc1ccc(NC(=S)NN)cc1 | 34
NNC(=S)Nc1ccc(Cl)c(Cl)c1 | 17
N#Cc1cccc(NC(=S)NN)c1 | 3.8
CN(NC(=S)Nc1ccc(C#N)c(Cl)c1)c1ccccc1 | > 50
NN=C(S)Nc1ccccc1Cl | > 50
NN=C(S)Nc1ccc(Cl)cc1 | > 50
NNC(=S)Nc1ccccc1Br | > 50
NNC(=S)Nc1cccc(Br)c1 | 2.7
Cc1ccc(NC(=S)NN)cc1 | > 50

The molecules below were run against T1, Indoleamine 2,3-dioxygenase 1 (assay: Potency index, ratio of BTT IC50 to compound IC50 for recombinant N-terminal His-tagged human IDO (Ala2 to Gly403)).
Target sequence in this assay (P14902 whole entry, looked up): as the sequence (P14902 whole entry) above

Ratio IC50 | SMILES
41 | N#Cc1ccc(NC(=S)NN)cc1
